`OC[C@H]1O[C@H](O[C@H]2O[C@H](CO)[C@@H](O)[C@H](O)[C@H]2O)[C@H](O)[C@@H](O)[C@@H]1O` gave a solubility (mole fraction) (in ethanol, 288.15 K) of 0.000652, a solubility (mole fraction) (in ethanol, 293.15 K) of 0.000701 and a solubility (mole fraction) (in ethanol, 298.15 K) of 0.000778. For the same molecule, the solubility (mole fraction) (in ethanol, 303.15 K) was 0.000852, the solubility (mole fraction) (in ethanol, 308.15 K) was 0.000905 and the solubility (mole fraction) (in ethanol, 313.15 K) was 0.000989. The solubility (mole fraction) (in ethanol, 318.15 K) was 0.00108, the solubility (mole fraction) (in water, 288.15 K) was 0.0344 and the solubility (mole fraction) (in water, 293.15 K) was 0.0381. For the same molecule, the solubility (mole fraction) (in water, 298.15 K) was 0.0437, the solubility (mole fraction) (in water, 303.15 K) was 0.0545 and the solubility (mole fraction) (in water, 308.15 K) was 0.0636. For the same molecule, the solubility (mole fraction) (in water, 313.15 K) was 0.0683 and the solubility (mole fraction) (in water, 318.15 K) was 0.114.
